The source made the active and inactive calls. The rule behind the calls is not given here.
Key:
[1] = system: MDA-MB-231; assay: Antiproliferative activity against human MDA-MB-231 cells highly expressing AXL after 72 hrs by MTT assay; conditions: MDA-MB-231, 72 h
[2] = system: 4T1; assay: Antiproliferative activity against mouse 4T1 cells highly expressing AXL after 72 hrs by MTT assay; conditions: 4T1, 72 h
[3] = Cytotoxicity against human MCF-10A cells after 72 hrs by MTT assay; format: toxicity, cell-based
[4] = Cytotoxicity against human GES1 cells after 72 hrs by MTT assay; format: toxicity, cell-based
[5] = system: MDA-MB-231; assay: Induction of cytoplasmic vacuolation in human MDA-MB-231 cells at 0.5 uM; format: functional, cell-based
[6] = system: 4T1; assay: Induction of cytoplasmic vacuolation in mouse 4T1 cells at 0.5 uM; format: functional, cell-based
[7] = system: MDA-MB-231; assay: Induction of macropinocytosis in human MDA-MB-231 cells measured by LysoTracker staining based fluorescence microscopy; format: functional, cell-based
[8] = system: MDA-MB-231; assay: Induction of macropinocytosis in human MDA-MB-231 cells measured by MitoTracker staining based fluorescence microscopy; format: functional, cell-based
[9] = system: MDA-MB-231; assay: Induction of macropinocytosis in human MDA-MB-231 cells assessed as co-localization of Rab7 with lucifer yellow measured by immunofluorescence assay; format: functional, cell-based
[10] = system: MDA-MB-231; assay: Induction of macropinocytosis in human MDA-MB-231 cells assessed as co-localization of LAMP-1 with lucifer yellow measured by immunofluorescence assay; format: functional, cell-based
[11] = system: MDA-MB-231; assay: Induction of cytoplasmic vacuolation in human MDA-MB-231 cells at 1 uM in presence of 1 uM pan-caspase inhibitor Z-VAD-FMK; format: functional, cell-based
[12] = system: MDA-MB-231; assay: Antitumor activity against human MDA-MB-231 cells xenografted in female BALB/c nude mouse assessed as tumor growth inhibition at 25 mg/kg, ip; format: functional, organism-based
[13] = Toxicity in female BALB/c nude mouse xenografted with human MDA-MB-231 cells assessed as change in body wieght at 25 mg/kg, ip; format: organism-based; conditions: in vivo
[14] = Systemic toxicity in female BALB/c nude mouse xenografted with human MDA-MB-231 cells assessed as necrosis of heart tissue at 25 mg/kg, ip; format: organism-based; conditions: in vivo
[15] = Systemic toxicity in female BALB/c nude mouse xenografted with human MDA-MB-231 cells assessed as necrosis of liver tissue at 25 mg/kg, ip; format: organism-based; conditions: in vivo
[16] = Systemic toxicity in female BALB/c nude mouse xenografted with human MDA-MB-231 cells assessed as necrosis of spleen tissue at 25 mg/kg, ip; format: organism-based; conditions: in vivo
[17] = Systemic toxicity in female BALB/c nude mouse xenografted with human MDA-MB-231 cells assessed as necrosis of lung tissue at 25 mg/kg, ip; format: organism-based; conditions: in vivo
[18] = Systemic toxicity in female BALB/c nude mouse xenografted with human MDA-MB-231 cells assessed as necrosis of kidney tissue at 25 mg/kg, ip; format: organism-based; conditions: in vivo
[19] = Systemic toxicity in female BALB/c nude mouse xenografted with human MDA-MB-231 cells assessed as inflammatory cell infiltration in heart at 25 mg/kg, ip; format: organism-based; conditions: in vivo
[20] = Systemic toxicity in female BALB/c nude mouse xenografted with human MDA-MB-231 cells assessed as inflammatory cell infiltration in liver at 25 mg/kg, ip; format: organism-based; conditions: in vivo
[21] = Systemic toxicity in female BALB/c nude mouse xenografted with human MDA-MB-231 cells assessed as inflammatory cell infiltration in spleen at 25 mg/kg, ip; format: organism-based; conditions: in vivo
[22] = Systemic toxicity in female BALB/c nude mouse xenografted with human MDA-MB-231 cells assessed as inflammatory cell infiltration in lung at 25 mg/kg, ip; format: organism-based; conditions: in vivo
[23] = Systemic toxicity in female BALB/c nude mouse xenografted with human MDA-MB-231 cells assessed as inflammatory cell infiltration in kidney at 25 mg/kg, ip; format: organism-based; conditions: in vivo
[24] = AUC (0 to t) in male Sprague-Dawley rat at 2 mg/kg, iv administered as single dose measured by LC/MS/MS analysis; format: ADME, organism-based; design: dose 2 mg/kg, route iv; conditions: in vivo
[25] = Cmax in male Sprague-Dawley rat at 2 mg/kg, iv administered as single dose measured by LC/MS/MS analysis; format: ADME, organism-based; design: dose 2 mg/kg, route iv; conditions: in vivo
[26] = Tmax in male Sprague-Dawley rat at 2 mg/kg, iv administered as single dose measured by LC/MS/MS analysis; format: ADME, organism-based; conditions: in vivo
[27] = Half-life in male Sprague-Dawley rat at 2 mg/kg, iv administered as single dose measured by LC/MS/MS analysis; format: ADME, organism-based; conditions: in vivo
[28] = Clearance in male Sprague-Dawley rat at 2 mg/kg, iv administered as single dose measured by LC/MS/MS analysis; format: ADME, organism-based; conditions: in vivo
[29] = AUC (0 to t) in male Sprague-Dawley rat at 20 mg/kg, po administered as single dose measured by LC/MS/MS analysis; format: ADME, organism-based; design: dose 20 mg/kg, route po; conditions: in vivo
[30] = Cmax in male Sprague-Dawley rat at 20 mg/kg, po administered as single dose measured by LC/MS/MS analysis; format: ADME, organism-based; design: dose 20 mg/kg, route po; conditions: in vivo
[31] = Tmax in male Sprague-Dawley rat at 20 mg/kg, po administered as single dose measured by LC/MS/MS analysis; format: ADME, organism-based; conditions: in vivo
[32] = Half-life in male Sprague-Dawley rat at 20 mg/kg, po administered as single dose measured by LC/MS/MS analysis; format: ADME, organism-based; conditions: in vivo
[33] = Oral bioavailability in male Sprague-Dawley rat at 20 mg/kg administered as single dose measured by LC/MS/MS analysis; format: ADME, organism-based; conditions: in vivo
[34] = system: Mus musculus; assay: In vivo induction of CRBN-mediated AXL degradation in mouse measured after 6 hrs; format: functional, organism-based

Q: Which results are given for Nc1nc(Nc2ccc(CNC(=O)CCCCCCCNc3cccc4c3CN(C3CCC(=O)NC3=O)C4=O)cc2)nn1-c1ccc(-c2ccccc2)nn1 (stereo not drawn)?
A: IC50 [1]: 10.3 µM; IC50 [2]: 5.53 µM; IC50 at 72 h [3]: > 60 µM; IC50 at 72 h [4]: > 60 µM; Activity [5]: Active; Activity [6]: Active; Activity [7]: Active; Activity [8]: Active; Activity [9]: Active; Activity [10]: Active; Activity [11]: Active; TGI [12]: Active; Activity [13]: Non-Toxic; Activity [14]: Non-Toxic; Activity [15]: Non-Toxic; Activity [16]: Non-Toxic; Activity [17]: Non-Toxic; Activity [18]: Non-Toxic; Activity [19]: Non-Toxic; Activity [20]: Non-Toxic; Activity [21]: Non-Toxic; Activity [22]: Non-Toxic; Activity [23]: Non-Toxic; AUCt [24]: 2933.4 ng·h/mL; Cmax [25]: 166 ng/mL; Tmax [26]: 0.54 h; t1/2 [27]: 0.72 h; clearance ([28]; male, Sprague-Dawley): 11.3 mL/min/kg; AUC(0-t) [29]: 865 ng·h/mL; Cmax [30]: 92 ng/mL; Tmax [31]: 1.89 h; half-life [32]: 2.37 h; bioavailability [33]: 4.93%; Activity [34]: Active

Q: Which IC50 [1] does the source give for Nc1nc(Nc2ccc(CNC(=O)CCCCCNc3cccc4c3CN(C3CCC(=O)NC3=O)C4=O)cc2)nn1-c1ccc(-c2ccccc2)nn1 (stereo not drawn) here?
A: The IC50 was 6.23 µM.

Q: And the IC50 [2]?
A: The IC50 was 2.06 µM.

Q: And the IC50 at 72 h [3]?
A: The IC50 at 72 h was > 60 µM.

Q: What about the IC50 at 72 h [4] of the same molecule?
A: Its IC50 at 72 h is > 60 µM.

Q: And the Activity [5]?
A: Its Activity is “Active”.

Q: What about the Activity [6] of the same molecule?
A: Its Activity is “Active”.

Q: What about the Activity [7] of the same molecule?
A: The Activity was “Active”.

Q: And the Activity [8]?
A: Its Activity is “Active”.

Q: What about the Activity [9] of the same molecule?
A: Its Activity is “Active”.

Q: What about the Activity [10] of the same molecule?
A: Its Activity is “Active”.

Q: And the Activity [11]?
A: Its Activity is “Active”.

Q: And the TGI [12]?
A: The TGI was “Active”.

Q: What about the Activity [13] of the same molecule?
A: Its Activity is “Non-Toxic”.

Q: What about the Activity [14] of the same molecule?
A: The Activity was “Non-Toxic”.

Q: And the Activity [15]?
A: Its Activity is “Non-Toxic”.

Q: What about the Activity [16] of the same molecule?
A: Its Activity is “Non-Toxic”.

Q: And the Activity [17]?
A: The Activity was “Non-Toxic”.

Q: What about the Activity [18] of the same molecule?
A: The Activity was “Non-Toxic”.

Q: What about the Activity [19] of the same molecule?
A: Its Activity is “Non-Toxic”.

Q: What about the Activity [20] of the same molecule?
A: Its Activity is “Non-Toxic”.

Q: And the Activity [21]?
A: Its Activity is “Non-Toxic”.

Q: What about the Activity [22] of the same molecule?
A: The Activity was “Non-Toxic”.

Q: What about the Activity [23] of the same molecule?
A: Its Activity is “Non-Toxic”.

Q: What about the AUCt [24] of the same molecule?
A: Its AUCt is 7581.3 ng·h/mL.

Q: What about the Cmax [25] of the same molecule?
A: Its Cmax is 279 ng/mL.

Q: What about the Tmax [26] of the same molecule?
A: The Tmax was 0.82 h.

Q: What about the t1/2 [27] of the same molecule?
A: Its t1/2 is 1.18 h.

Q: And the CL ([28]; iv, 2 mg/kg)?
A: The CL was 12 mL/min/kg.

Q: And the AUC(0-t) [29]?
A: The AUC(0-t) was 3590 ng·h/mL.

Q: And the Cmax [30]?
A: The Cmax was 144 ng/mL.

Q: What about the Tmax [31] of the same molecule?
A: Its Tmax is 2.25 h.

Q: What about the half-life [32] of the same molecule?
A: The half-life was 4.43 h.

Q: And the bioavailability [33]?
A: Its bioavailability is 7.8%.

Q: And the Activity [34]?
A: Its Activity is “Active”.

Reference: ChEMBL document CHEMBL5154798, “Structure-based discovery of receptor tyrosine kinase AXL degraders with excellent anti-tumor activity by selectively degrading AXL and inducing methuosis” (Eur J Med Chem, 2022)
